Assay results: patent US7262289B2, “KCNQ potassium channels and methods of modulating same” (Bristol-Myers Squibb Co., priority 1997, dated 2007)
Like-named read-outs stand apart in the source and are kept apart here.

How the values were obtained:
[1] = target: T1, KCNQ2+KCNQ3 (Homo sapiens, UniProt O43525+O43526, DEL509-509/N780T); type: cell-based
T1 construct: The full-length cDNAs were subcloned into a Xenopus expression vector, derived from pSP64T plasmid; expressed in transfected cells; host or cells: Xenopus laevis oocytes (co-injection of cRNAs)
Method: FIGS. 19A-19F show co-expression of KCNQ2 and KCNQ3. […] Currents were recorded using the protocol in FIGS. 19A-19C. […] The dashed line has a slope predicted by the Nernst equation for a perfectly selective K^+ channel. Each value is the mean±SEM from 6 oocytes. […] Superimposed currents were recorded during 1 sec steps to +20 mV, from […], during the same experiment. Compounds were applied via bath perfusion in order from top to bottom.
(§1) Stage V and VI Xenopus laevis oocytes were defolliculated with collagenase treatment and injected with cRNAs, as described in Yang et al., supra. Currents were recorded at room temperature using the two-microelectrode voltage clamp (Dagan TEV-200) technique between 3-5 days after injection of KCNQ2 (15 ng), KCNQ3 (15 ng), or KCNE1 (2 ng) cRNA alone or in combination. Microelectrodes (0.8 to 1.5 MΩ) were filled with 3 M KCl . Bath solution contained (in mM): 96 NaCl, 2 KCl , 0.4-1.8 CaCl2, 1-2 MgCl2 and 5 HEPES (pH 7.5). KCl was varied in some experiments by equimolar substitution with NaCl.
(§2) Axoclamp (Axon Instruments) was used for generating voltage clamp commands and acquiring data and Axograph 3.0 (Axon Instruments) was used for data analysis. All data was sampled at rates at least two times the low pass filter rate. Experiments were performed at 22-25° C.

[2] = target: T2, KCNQ1/KvLQT1 (Homo sapiens, UniProt P51787); conditions: from Yang et al. (1997); cited from earlier work
[3] = target: T3, KCNQ3 (Homo sapiens, UniProt O43525); type: cell-based
T3 construct: The full-length human KCNQ2 and KCNQ3 cDNAs were subcloned into a Xenopus expression vector and cRNA was generated by in vitro transcription; expressed in transfected cells; host or cells: Xenopus laevis oocytes (cRNA injection)
Method: FIGS. 18A-18D show the functional characterization of KCNQ3 currents. […] Currents were recorded using the protocol in FIG. 18A. […] Each value is the mean±SEM from 6 oocytes. […] Superimposed currents were recorded during 1 sec steps to +20 mV, from −80 mV, during the same experiment. Compounds were applied via bath perfusion in order from top to bottom. The bath was perfused with control solution for 5 min, or until effects reversed completely, between compounds.
as §1, §2

[4] = target: T4, human KCNQ2/KvLR1 (Homo sapiens, UniProt O43526, DEL509-509/N780T); type: cell-based
T4 construct: The full-length human KCNQ2 and KCNQ3 cDNAs were subcloned into a Xenopus expression vector and cRNA was generated by in vitro transcription; expressed in transfected cells; host or cells: Xenopus laevis oocytes (cRNA injection)
Method: Superimposed currents were recorded during 1 second steps to +30 mV, from −80 mV, during the same experiment. Compounds were applied via bath perfusion in order from top to bottom. The bath was perfused with control solution for 5 minutes, or until effects reversed completely, between compounds.
Inhibitors of various potassium channels present in brain and other tissues were used to investigate the pharmacology of KCNQ2/KvLR1.
as §1, §2

[5] = target: T2, KCNQ1/KvLQT1; test: KCNQ1/KvLQT1 currents (comparison); type: cell-based; conditions: no citation, concentration not given
[6] = target: T5, murine KCNQ2/KvLR1 (Mus musculus, UniProt Q9Z351, DEL481-481/H600Q/P326Q); test: murine KCNQ2/KvLR1-mediated whole-cell currents in Xenopus oocytes, 2-electrode voltage clamp; type: cell-based; conditions: for effect on murine KCNQ2-mediated currents: concentration not given
T5 construct: Also disclosed is a full-length murine cDNA clone of KCNQ2 (murine KvLR1); expressed in transfected cells; host or cells: Xenopus oocytes (cRNA injection)
Method: FIGS. 15A and 15B show electrophysiology characterization of mouse KCNQ2/KvLR1-mediated whole-cell currents expressed in Xenopus oocytes.
To test for functional expression, cRNA was prepared from the murine KCNQ2/KvLR1 gene and injected into Xenopus oocytes. In a two-electrode voltage clamp, a family of outward currents were generated in murine KCNQ2/KvLR1 cRNA-injected oocytes (n>20). After a minimum of 48 hours, currents qualitatively and quantitatively different than native currents generated with identical protocols in water injected or uninjected control cells (representing Ca^2+-activated chloride currents and other native currents) (FIG. 15). […] Similar currents were obtained from CHO cells stably expressing murine KCNQ2 and recorded using patch-clamp techniques. Single channel conductances were estimated to be 24-30 pS in symmetrical 140 mM potassium. (FIG. 22).
The murine KCNQ2/KvLR1 cDNAs were linearized with the restriction enzyme NotI and in vitro transcribed using the mMessage mMachine T7 RNA polymerase kit according to the manufacturer's instructions (Ambion, Austin, Tex.). The cRNAs were solubilized in RNase-free water, and stored at −70° C. at a concentration of 1.0 μg/μl. Frog oocytes were prepared and injected using standard techniques (Colman, 1984). In murine KvLR1 expression experiments, each oocyte was injected with approximately 35-40 nl of the cRNA. Following injection, oocytes were maintained at 17° C., in ND96 medium consisting of (in mM): NaCl, 90; KCl, 1.0; CaCl2, 1.0; MgCl2, 1.0; HEPES, 5.0; pH 7.5. Horse serum and penicillin/streptomycin, both 5% of final volume, were added as supplements to the incubation medium. Electrophysiological recording commenced 2-6 days following cRNA injection. Prior to the start of an experiment oocytes were placed in a recording chamber and incubated in Modified Barth's Solution (MBS) consisting of (in mM): NaCl, 88; NaHCO3, 2.4; KCl, 1.0; HEPES, 10; MgSO4, 0.82; Ca(NO3)2, 0.33; CaCl2, 0.41; pH 7.5. Oocytes were impaled with electrodes (1-2 MΩ) and standard 2-electrode voltage clamp techniques were employed to record whole-cell membrane currents (Stuhmer, 1992; TEC 200, Dagan Instruments). Voltage-clamp protocols typically consisted of a series of voltage steps 100-500 ms duration, in +10 mV steps from a holding potential of −60 mV to −90 mV to a maximal potential of +40 mV to +50 mV; records were digitized at 5 kHz and stored on a computer using pClamp 6.0 software (Axon Instruments), and analyzed using ClampFit or AxoGraph software (Axon Instruments).

[7] = target: minK+human KCNQ2/KvLR1 (Homo sapiens, UniProt O43526); conditions: 1 mM, steps to +40 mV from −80 mV
Method: as §1

[8] = 10 μM, steps to +30 mV from −80 mV

minK+human KCNQ2/KvLR1, sequence (O43526 whole entry): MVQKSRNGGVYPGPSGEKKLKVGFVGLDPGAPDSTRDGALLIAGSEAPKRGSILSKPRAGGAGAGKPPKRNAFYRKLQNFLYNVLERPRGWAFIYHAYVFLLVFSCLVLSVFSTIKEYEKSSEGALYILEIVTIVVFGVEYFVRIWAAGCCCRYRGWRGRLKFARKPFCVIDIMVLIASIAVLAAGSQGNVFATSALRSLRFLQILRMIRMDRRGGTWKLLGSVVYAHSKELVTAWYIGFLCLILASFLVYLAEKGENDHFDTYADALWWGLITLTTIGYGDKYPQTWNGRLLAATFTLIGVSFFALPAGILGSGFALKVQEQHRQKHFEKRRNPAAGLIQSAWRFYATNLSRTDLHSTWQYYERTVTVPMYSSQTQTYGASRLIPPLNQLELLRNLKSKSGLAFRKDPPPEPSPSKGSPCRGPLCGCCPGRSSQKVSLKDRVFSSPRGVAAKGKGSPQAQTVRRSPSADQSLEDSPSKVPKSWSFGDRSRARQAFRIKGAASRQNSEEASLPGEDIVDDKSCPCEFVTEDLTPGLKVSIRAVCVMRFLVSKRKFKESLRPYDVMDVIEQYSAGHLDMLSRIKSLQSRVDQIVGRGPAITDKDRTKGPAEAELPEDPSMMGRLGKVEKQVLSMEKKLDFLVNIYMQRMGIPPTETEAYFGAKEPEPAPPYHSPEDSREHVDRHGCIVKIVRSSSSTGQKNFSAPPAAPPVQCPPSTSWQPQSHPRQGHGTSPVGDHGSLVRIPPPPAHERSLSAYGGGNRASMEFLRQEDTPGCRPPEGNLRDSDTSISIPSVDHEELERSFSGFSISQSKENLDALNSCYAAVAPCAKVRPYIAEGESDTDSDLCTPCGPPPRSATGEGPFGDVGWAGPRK

## Cc1cccc(CCN2CCC(C(=O)c3ccc(NS(C)(=O)=O)cc3)CC2)n1 [E-4031]
[1]; 10 μM
  sensitivity of KCNQ2+KCNQ3 current to inhibition: did not inhibit
[2]
  inhibition of KCNQ1/KvLQT1 currents: do not inhibit
[3]; 10 μM
  effect on KCNQ3 current: no effect
[4]; [8]
  effect on KCNQ2/KvLR1 current: Neither E-4031 nor 4-AP produced significant effects

## Charybdotoxin
[1]; 100 nM
  sensitivity of KCNQ2+KCNQ3 current to inhibition: not
[5]
  effect on KCNQ1/KvLQT1: no effect
[6]
  effect on murine KCNQ2-mediated currents: no significant effect
[3]; 100 nM
  effect on KCNQ3 current: no effect
[4]; 0.1 mM (concentration tested)
  effect on KCNQ2/KvLR1 current: did not inhibit

## CCCCCCC[N+](CC)(CC)CCCCc1ccc(Cl)cc1 [clofilium]
[1]; 10 μM
  sensitivity of KCNQ2+KCNQ3 current to inhibition: weakly sensitive to inhibition
[2]
  inhibition of KCNQ1/KvLQT1 currents: strong inhibitor
[6]; 20 μM, depolarized from −80 to +40
  block of murine KCNQ2-mediated currents: partially block
[3]; 10 μM
  reduction of KCNQ3 current from control: 30%
[4]; [8]
  effect on KCNQ2/KvLR1 current: little effect

## iberiotoxin: specific K+ channel blocking toxin (QFTDVDCSVSKECWSVCKDLFGVDRGKCMGKKCRCYQ)
[6]
  effect on murine KCNQ2-mediated currents: no significant effect

## α-dendrotoxin (QPRRKLCILHRNPGRCYDKIPAFYYNQKKKQCERFDWSGCGGNSNRFKTIEECRRTCIG)
[6]
  effect on murine KCNQ2-mediated currents: no significant effect

## Nc1ccncc1 [4-AP, 4-aminopyridine]
[1]; 2 mM
  sensitivity of KCNQ2+KCNQ3 current to inhibition: not
[2]
  inhibition of KCNQ1/KvLQT1 currents: do not inhibit
[3]; 2 mM
  effect on KCNQ3 current: no effect
[4]; 0.2 mM
  effect on KCNQ2/KvLR1 current: Neither E-4031 nor 4-AP produced significant effects

## CC[N+](CC)(CC)CC [TEA, tetraethylammonium]
[7]
  effect on minK+human KCNQ2/KvLR1 currents: partially inhibited
[1]
  sensitivity of KCNQ2+KCNQ3 current to inhibition: weakly sensitive to inhibition
[6]
  block of murine KCNQ2/KvLR1-mediated currents: blocked
[3]
  effect on KCNQ3 current: little inhibition
[4]
  effect on KCNQ2 current: strongly inhibited
